The term % Inhibition denotes the change of the read-out against control, counted positive when it falls. Low readings indicate a weak effect, high ones a strong effect.

Data on 47 substances can be found in patent US10517889B2, “Modulators of SMAD7 expression” (Ionis Pharmaceuticals, Inc., priority 2017, dated 2019).

Values joined by “and” are separate entries in the source; they are usually repeats but may differ in a detail not shown here. Equal entries are not always repeated. Strand notation (5' to 3'): a small letter for the sugar, then the base; units joined by * are phosphorothioate-linked, units joined directly phosphodiester-linked; [ ] holds rarer units or linkages, { } end groups; capitals alone tell only the bases. k = constrained ethyl (cEt); [5mC] = 5-methylcytosine; d = 2'-deoxy (DNA)

The subject of this series is human SMAD7 mRNA. Kind of series: Antisense inhibition of human SMAD7 mRNA expression in Hep3B cells by 3-10-3 cEt gapmers, 10,000 nM, electroporation (Example 2). The series is classed as cell-based. To be noted: Hep3B cells, electroporation with 10,000 nM antisense oligonucleotide, approximately 24 hours, primer probe set RTS5062, relative to untreated control cells. A digest of the protocol:
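Hep3B cells (20,000 per well) were electroporated with 10,000 nM 16-mer 3-10-3 cEt gapmer (phosphorothioate, 5-methylcytosine). After about 24 h, SMAD7 mRNA was quantified by qRT-PCR with primer probe set RTS5062, normalised to RIBOGREEN total RNA, and expressed as percent inhibition versus untreated cells.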
On to “799005 (antisense k[5mC]*kG*kT*dG*d[5mC]*dA*d[5mC]*dA*d[5mC]*dA*d[5mC]*dA*dG*k[5mC]*k[5mC]*kG) [compound 799005]”, for which the “% inhibition of SMAD7 mRNA expression” value was found to be 0%.
On the same count and under the same terms, the result for “799006 (k[5mC]*kG*k[5mC]*dT*d[5mC]*d[5mC]*dT*dG*d[5mC]*dA*d[5mC]*dA*d[5mC]*kG*k[5mC]*kG; antisense) [compound 799006]” reads 0%; that for “799007 (kT*kG*k[5mC]*d[5mC]*dG*d[5mC]*dT*d[5mC]*d[5mC]*dT*dG*d[5mC]*dA*k[5mC]*kA*k[5mC]; antisense) [compound 799007]”, 47%; that for “799008 (k[5mC]*k[5mC]*kA*dT*d[5mC]*dT*dG*d[5mC]*d[5mC]*dG*d[5mC]*dT*d[5mC]*k[5mC]*kT*kG; antisense) [compound 799008]”, 60%.
Still for that read-out and setting: in the case of “799009 (kT*k[5mC]*k[5mC]*d[5mC]*d[5mC]*dA*dT*d[5mC]*dT*dG*d[5mC]*d[5mC]*dG*k[5mC]*kT*k[5mC]; antisense) [compound 799009]” it was 62%.
Consider “799010 (k[5mC]*kG*kT*dT*dG*dT*d[5mC]*dT*d[5mC]*d[5mC]*d[5mC]*d[5mC]*dA*kT*k[5mC]*kT; antisense) [compound 799010]”, for which the “% inhibition of SMAD7 mRNA expression” value was found to be 57%.
Still for that read-out and setting: in the case of “799011 (k[5mC]*kA*kA*dA*dA*d[5mC]*dA*dA*dA*dG*dA*dG*d[5mC]*kA*k[5mC]*kG; antisense) [compound 799011]” it was 35%.
As for “799012 (kA*kT*kA*dA*dG*dA*dG*dA*d[5mC]*dA*d[5mC]*dA*dA*kA*kA*k[5mC]; antisense) [compound 799012]”, the “% inhibition of SMAD7 mRNA expression” value is on record as 43%.
Consider “799013 (kT*k[5mC]*k[5mC]*dA*dT*dA*dA*dG*dA*dG*dA*d[5mC]*dA*k[5mC]*kA*kA; antisense) [compound 799013]”, for which the “% Inhibition” value is 37%.
The same measure, in the same setting: in the case of “799014 (kA*k[5mC]*kA*dT*d[5mC]*d[5mC]*dA*dT*dA*dA*dG*dA*dG*kA*k[5mC]*kA; antisense) [compound 799014]” it was 29%; in that of “799015 (kG*kG*kG*dA*d[5mC]*dA*dT*d[5mC]*d[5mC]*dA*dT*dA*dA*kG*kA*kG; antisense) [compound 799015]”, 25%.
On the same count and under the same terms, in the case of “799016 (k[5mC]*kA*kA*dA*d[5mC]*d[5mC]*dT*d[5mC]*dT*d[5mC]*dT*dG*d[5mC]*kT*kG*kG; antisense) [compound 799016]” it was 30%; in that of “799017 (kT*kG*k[5mC]*dA*dA*dA*d[5mC]*d[5mC]*dT*d[5mC]*dT*d[5mC]*dT*kG*k[5mC]*kT; antisense) [compound 799017]”, 0%.
The same measure, in the same setting: in the case of “799018 (k[5mC]*kT*kG*d[5mC]*dA*dA*dA*d[5mC]*d[5mC]*dT*d[5mC]*dT*d[5mC]*kT*kG*k[5mC]; antisense) [compound 799018]” it was 29%; in that of “799019 (kA*k[5mC]*kT*dG*d[5mC]*dA*dA*dA*d[5mC]*d[5mC]*dT*d[5mC]*dT*k[5mC]*kT*kG; antisense) [compound 799019]”, 36%; in that of “799020 (kG*kA*k[5mC]*dT*dG*d[5mC]*dA*dA*dA*d[5mC]*d[5mC]*dT*d[5mC]*kT*k[5mC]*kT; antisense) [compound 799020]”, 48%.
With “799021 (kG*kG*kA*d[5mC]*dT*dG*d[5mC]*dA*dA*dA*d[5mC]*d[5mC]*dT*k[5mC]*kT*k[5mC]; antisense) [compound 799021]”, the “% Inhibition” value came out at 62%.
On the same count and under the same terms, in the case of “799022 (kG*kG*kG*dA*d[5mC]*dT*dG*d[5mC]*dA*dA*dA*d[5mC]*d[5mC]*kT*k[5mC]*kT; antisense) [compound 799022]” it was 61%.
With “799023 (kT*kG*kG*dG*dA*d[5mC]*dT*dG*d[5mC]*dA*dA*dA*d[5mC]*k[5mC]*kT*k[5mC]; antisense) [compound 799023]”, the “% inhibition of SMAD7 mRNA expression” value turned out to be 42%.
The same measure, in the same setting: in the case of “799024 (k[5mC]*kT*kT*dG*dG*dG*dA*d[5mC]*dT*dG*d[5mC]*dA*dA*kA*k[5mC]*k[5mC]; antisense) [compound 799024]” it was 0%.
Still for that read-out and setting: in the case of “799025 (k[5mC]*kG*k[5mC]*dT*dT*dG*dG*dG*dA*d[5mC]*dT*dG*d[5mC]*kA*kA*kA; antisense) [compound 799025]” it was 10%; in that of “799026 (k[5mC]*k[5mC]*kG*d[5mC]*dT*dT*dG*dG*dG*dA*d[5mC]*dT*dG*k[5mC]*kA*kA; antisense) [compound 799026]”, 1%.
Still for that read-out and setting: the result for “799027 (kA*k[5mC]*k[5mC]*dG*d[5mC]*dT*dT*dG*dG*dG*dA*d[5mC]*dT*kG*k[5mC]*kA; antisense) [compound 799027]” reads 46%.
On to “799028 (kA*kG*kA*d[5mC]*dA*d[5mC]*d[5mC]*dG*d[5mC]*dT*dT*dG*dG*kG*kA*k[5mC]; antisense) [compound 799028]”, for which the “% inhibition of SMAD7 mRNA expression” value amounted to 37%.
On the same count and under the same terms, in the case of “799029 (kG*kG*kA*dG*dA*dG*dA*d[5mC]*dA*d[5mC]*d[5mC]*dG*d[5mC]*kT*kT*kG; antisense) [compound 799029]” it was 0%; in that of “799030 (kG*k[5mC]*kA*dG*dG*dA*dG*dA*dG*dA*d[5mC]*dA*d[5mC]*k[5mC]*kG*k[5mC]; antisense) [compound 799030]”, 52%.
Still for that read-out and setting: in the case of “799031 (kT*kG*k[5mC]*d[5mC]*dT*d[5mC]*dT*dG*d[5mC]*d[5mC]*d[5mC]*d[5mC]*dA*k[5mC]*kT*kG; antisense) [compound 799031]” it was 46%; in that of “799032 (kA*kG*kG*dT*dA*d[5mC]*dT*dG*d[5mC]*d[5mC]*dT*d[5mC]*dT*kG*k[5mC]*k[5mC]; antisense) [compound 799032]”, 42%.
For the substance “799033 (k[5mC]*k[5mC]*k[5mC]*dA*dG*dG*dT*dA*d[5mC]*dT*dG*d[5mC]*d[5mC]*kT*k[5mC]*kT; antisense) [compound 799033]”, the “% Inhibition” value came out at 35%.
In the case of “799034 (k[5mC]*kT*kT*dG*d[5mC]*d[5mC]*d[5mC]*dA*dG*dG*dT*dA*d[5mC]*kT*kG*k[5mC]; antisense) [compound 799034]”, the “% Inhibition” value came to 12%.
For “799035 (k[5mC]*kG*k[5mC]*d[5mC]*dA*dG*d[5mC]*dT*dT*dG*d[5mC]*d[5mC]*d[5mC]*kA*kG*kG; antisense) [compound 799035]”, the “% Inhibition” value is reported as 0%.
As to “799036 (kA*kG*k[5mC]*d[5mC]*dG*d[5mC]*d[5mC]*dA*dG*d[5mC]*dT*dT*dG*k[5mC]*k[5mC]*k[5mC]; antisense) [compound 799036]”, the “% Inhibition” value is on record as 8%.
Still for that read-out and setting: in the case of “799037 (k[5mC]*k[5mC]*k[5mC]*d[5mC]*dA*dG*d[5mC]*d[5mC]*dG*d[5mC]*d[5mC]*dA*dG*k[5mC]*kT*kT; antisense) [compound 799037]” it was 9%.
The same measure, in the same setting: the result for “799038 (kG*kG*kA*d[5mC]*d[5mC]*d[5mC]*d[5mC]*dA*dG*d[5mC]*d[5mC]*dG*d[5mC]*k[5mC]*kA*kG; antisense) [compound 799038]” reads 19%; that for “799039 (kT*kG*k[5mC]*dT*dG*dG*dG*dA*d[5mC]*d[5mC]*d[5mC]*d[5mC]*dA*kG*k[5mC]*k[5mC]; antisense) [compound 799039]”, 19%.
The same measure, in the same setting: in the case of “799040 (kA*kG*k[5mC]*dT*dG*d[5mC]*dT*dG*dG*dG*dA*d[5mC]*d[5mC]*k[5mC]*k[5mC]*kA; antisense) [compound 799040]” it was 51%; in that of “799041 (kG*kG*k[5mC]*dA*dG*d[5mC]*dT*dG*d[5mC]*dT*dG*dG*dG*kA*k[5mC]*k[5mC]; antisense) [compound 799041]”, 22%; in that of “799042 (kT*kG*k[5mC]*dT*d[5mC]*d[5mC]*dT*dG*dG*d[5mC]*dA*dG*d[5mC]*kT*kG*k[5mC]; antisense) [compound 799042]”, 33%.
For “799043 (kA*kG*k[5mC]*d[5mC]*dG*dT*dG*d[5mC]*dT*d[5mC]*d[5mC]*dT*dG*kG*k[5mC]*kA; antisense) [compound 799043]”, the “% inhibition of SMAD7 mRNA expression” value was 0% and 10%.
Turning to “799044 (k[5mC]*kA*kG*dA*dG*d[5mC]*d[5mC]*dG*dT*dG*d[5mC]*dT*d[5mC]*k[5mC]*kT*kG; antisense) [compound 799044]”, the “% inhibition of SMAD7 mRNA expression” value turned out to be 0%.
As to “799045 (kG*kG*kA*d[5mC]*dA*dG*dA*dG*d[5mC]*d[5mC]*dG*dT*dG*k[5mC]*kT*k[5mC]; antisense) [compound 799045]”, the “% inhibition of SMAD7 mRNA expression” value is 37%.
Still for that read-out and setting: the result for “799046 (antisense kG*kG*k[5mC]*dT*dT*dT*d[5mC]*d[5mC]*d[5mC]*dA*dG*dG*d[5mC]*kT*kG*kG) [compound 799046]” reads 0%.
Still for that read-out and setting: in the case of “799047 (antisense kT*kT*kG*dA*dT*dG*dA*dG*dG*dG*dA*dG*dA*kG*kG*kA) [compound 799047]” it was 63%; in that of “799048 (antisense kT*k[5mC]*k[5mC]*dT*dT*dG*dA*dT*dG*dA*dG*dG*dG*kA*kG*kA) [compound 799048]”, 60%; in that of “799049 (antisense kG*k[5mC]*k[5mC]*d[5mC]*dG*dT*dG*dT*d[5mC]*d[5mC]*dT*dT*dG*kA*kT*kG) [compound 799049]”, 44%.
The same measure, in the same setting: in the case of “799050 (antisense kA*k[5mC]*kA*dG*dG*d[5mC]*d[5mC]*d[5mC]*dG*dT*dG*dT*d[5mC]*k[5mC]*kT*kT) [compound 799050]” it was 36%.
Regarding “799051 (antisense kT*kG*kG*dA*d[5mC]*dA*dG*dG*d[5mC]*d[5mC]*d[5mC]*dG*dT*kG*kT*k[5mC]) [compound 799051]”, the “% inhibition of SMAD7 mRNA expression” value was 32%.
